Measurements: patent publication US6162459A, “Acyclovir transdermal delivery system” (priority 1997, dated 2000)
“Also recorded” adds a separate entry of the source.

Experiments:
HSV = conditions: in vivo studies; cited from earlier work
HSV 2 = conditions: cited from earlier work
HSV 1 [1] = conditions: cited from earlier work
[2] = system: Varicella Zoster virus(VZV); conditions: cited from earlier work
Cytomegalovirus(CMV) = conditions: cited from earlier work
HSV 1 [3] = conditions: cited from earlier work; remark: listed apart in the source
Epstein Barr virus(EBV) = conditions: cited from earlier work
[4] = used locally; cited from earlier work
[5] = in vivo; cited from earlier work
[6] = in vitro; cited from earlier work
[7] = type: physicochemical
Excerpt: Since drugs are said to pass the skin through either polar pathways or norpolar pathways, it is instructive to examine the solubility parameters and lipophilic indices of such enhancers, the latter being calculated from the defermination of their k' values in the mobile phase of varying methanol concentrations of the HPLC method used.

For `Nc1nc2c(ncn2COCCO)c(=O)[nH]1` [ACV, 9-[(2-Hydroxyethoxy)methyl]-guanine], the “in vivo rating to treat HSV, comparison” value (HSV) is given as “better than FIAC(D17) and DHPG(D2); also recorded: better than bromovinyldeoxy uridine(D16) being effective against both HSV 1 and HSV 2”, the “activity against HSV 2” value (HSV 2) is given as “active” and the “drug concentration in the skin, local vs oral” value (HSV 1 [1]; local application vs given orally) is given as 2-3 times lower. For the same compound, the “effect in the treatment of HSV 1, oral vs local” value (HSV 1 [1]; oral administration vs local application) was “better with oral administration than with local application”, the “activity against VZV” value [2] was “active” and the “activity against CMV” value (Cytomegalovirus(CMV)) was “active”. For the same compound, the “effectiveness against CMV, comparison” value (Cytomegalovirus(CMV); compared with DHPG, Idoxuridine, Trifluridine, or Ara-A, in some case) was “less effective against CMV as compared with DHPG, Idoxuridine, Trifluridine, orAra-A”, the “activity against HSV 1” value (HSV 1 [3]) was “active; also recorded: especially HSV 1” and the “activity against EBV” value (Epstein Barr virus(EBV)) was “active against EBV, but only during the productive cycle”.

In the case of `O=c1[nH]c(=O)n([C@H]2C[C@H](O)[C@@H](CO)O2)cc1I` [IDU], the “toxicity” value [4] is listed as “relatively low toxicities”.

In the case of `CC1(C)[C@@H](O[C@H]2O[C@H](C(=O)O)[C@@H](O)[C@H](O)[C@H]2O[C@@H]2O[C@H](C(=O)O)[C@@H](O)[C@H](O)[C@H]2O)CC[C@]2(C)[C@H]3C(=O)C=C4[C@@H]5C[C@@](C)(C(=O)O)CC[C@]5(C)CC[C@@]4(C)[C@]3(C)CC[C@@H]12` [glycyrrhizin], the “effect against paw swelling” value [5] is listed as “effective against paw swelling” and the “anti-inflammatory property” value [6] is listed as “anti-inflammatory property”.

For `CC1(C)CC[C@]2(C(=O)O)CC[C@]3(C)C(=CC[C@@H]4[C@@]5(C)CC[C@H](O)C(C)(C)[C@@H]5CC[C@]43C)[C@@H]2C1` [oleanolic acid], the “polarity” value [7] was “opposite polarities”.
